The results in this text go back to PubChem BioAssay AID651745 (NMMLSC, 2012).

The structures appear in SMILES notation. The source made the active and inactive calls.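 The calls were made as follows: active = GFP positive cell share at least 15% at top dose plus 60%-effect dose below 60 µM; inactive = the rest.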

System in the first assay: not listed separately
In words: promoters of myeloid differentiation, HoxA9-arrested cells, dose response, cell-based, lysozyme-GFP, flow cytometry, Cherry Pick01 (AID 651745). Particulars: ER-HoxA9 myeloid progenitors, lysozyme-GFP differentiation, flow cytometry; at 2.19 µM (top of the series). In general terms: A flow cytometer gives signals particle by particle.
As for `Cn1c(=O)c2cc(NC(=O)NCc3ccc(F)cc3)ccc2n1C/C=C/c1ccccc1`, the percent GFP positive (differentiation) is 1.7% (inactive).

The assay is the same for the next values; noted with them: ER-HoxA9 myeloid progenitors, lysozyme-GFP differentiation, flow cytometry; at 4.37 µM (top of the series).
As to `Cc1nn(-c2ccccc2)c(N2CCCC2)c1/C=N/NC(=S)Nc1ccccc1F`, the percent GFP positive (differentiation) was 2.2% (inactive).

On to `O=C(NCc1ccccc1)C1=C[C@@H](c2csc3ccccc23)C[C@@H](OCc2ccc(CO)cc2)O1`, for which the percent GFP positive (differentiation) was 1.2% (inactive).

On to `Clc1ccc(Cn2ncc3c(N4CCN(c5ccccc5)CC4)ncnc32)cc1`, for which the percent GFP positive (differentiation) is 1.8% (inactive).

Still in this assay, the particulars now being: ER-HoxA9 myeloid progenitors, lysozyme-GFP differentiation, flow cytometry; at 6.6 µM (top of the series).
On to `c1cc(SC2CCCCC2)cc(-c2nc3cnccn3c2NC2CCCCC2)c1`, for which the percent GFP positive (differentiation) was 4.8% (inactive).

Regarding `Brc1ccc(-c2csc3[n+]2CCCCC3)cc1`, the percent GFP positive (differentiation) is 9.9% (inactive).

Take `Cn1cc(-c2cnc3c(NC=O)cc(-c4cccc(C(F)(F)F)c4)cn23)cn1`: the percent GFP positive (differentiation) is 2.3% (inactive).

Consider `CCOC(=O)c1c(NC(=O)C(C)OC(=O)c2ccc(NC(=O)CC#N)cc2)sc2c1CCCC2` (stereo not drawn), for which the percent GFP positive (differentiation) was 1.6% (inactive).

For the compound `COc1ccc(NC2=C(NC(C)=O)C(=O)c3ccccc3C2=O)cc1`, the percent GFP positive (differentiation) was 20.3% (inactive).

The same assay, now with this note: ER-HoxA9 myeloid progenitors, lysozyme-GFP differentiation, flow cytometry; at 13.2 µM (top of the series).
Regarding `CNC(=O)c1c(NC(=O)c2ccc(S(=O)(=O)N3CCCc4ccccc43)cc2)sc2c1CCN(C)C2`, the percent GFP positive (differentiation) was 4.8% (inactive).

Take `C[n+]1c(/C=C/c2ccc3c(c2)OCO3)ccc2ccccc21`: the percent GFP positive (differentiation) is 3.3% (inactive).

`CCOC(=O)c1c(NC(=O)C(C)Sc2cccc[n+]2[O-])sc2c1CCN(Cc1ccccc1)C2` (stereo not drawn): the percent GFP positive (differentiation) is 1.7% (inactive).

For `CCCN1CCc2c(sc(NC(=O)c3ccc(S(=O)(=O)N(C)c4ccccc4)cc3)c2C(=O)NC)C1`, the percent GFP positive (differentiation) is 89.5% (inactive).

For `C=CCN(c1ccccc1OC)S(=O)(=O)c1ccc(Cl)c(C(=O)NCc2ccco2)c1`, the percent GFP positive (differentiation) was 2.5% (inactive).

Consider `CCC1(c2ccc(F)cc2)NC(=O)N(CC(=O)N2CCN(S(=O)(=O)c3ccc(C)cc3C)CC2)C1=O` (stereo not drawn), for which the percent GFP positive (differentiation) is 1.95% (inactive).

On to `COC(=O)C1=C(c2cc3ccccc3s2)C[C@@H]2CC[C@H]1N2C(=O)NC1CCCCC1`, for which the percent GFP positive (differentiation) was 4.3% (inactive).

Regarding `CCCCOc1ccc(OC(=O)Nc2cc(Cl)ccc2OC)cc1`, the percent GFP positive (differentiation) was 2.55% (inactive).

As to `CCCc1nc2c3ccccc3ccn2c1Cc1ccc(OC)cc1C`, the percent GFP positive (differentiation) is 2.2% (inactive).

As for `O=CNc1ccc2c3c(cccc13)-c1ccccc1-2`, the percent GFP positive (differentiation) is 1.9% (inactive).

Take `Nc1ccc(C#Cc2ccc3c(=O)c4ccccc4oc3c2)cc1`: the percent GFP positive (differentiation) was 15.2% (inactive).

On to `CN(Cc1ccc(Cl)c(Cl)c1)C(=O)C1=CC=CN2CCS(=O)(=O)N=C12`, for which the percent GFP positive (differentiation) was 6.5% (inactive).

As to `COc1ccc(/C=C/C(O)=C2/C(=O)N(C)C3(C)CC2c2ccccc2O3)cc1` (stereo not drawn), the percent GFP positive (differentiation) was 5.7% (inactive).

Staying with this assay, now noted: ER-HoxA9 myeloid progenitors, lysozyme-GFP differentiation, flow cytometry; at 19.9 µM (top of the series).
In the case of `C/C(N)=C(/C#N)C(=O)COC(=O)c1cc(C)n(-c2ccc(F)cc2)c1C`, the percent GFP positive (differentiation) is 10.9% (inactive).

For the compound `O=c1[nH][nH]cc1C=Nc1ccccc1O`, the percent GFP positive (differentiation) is 2.8% (inactive).

On to `COc1ccc(-n2c(C)cc(/C=C3\SC(=S)N(Cc4ccco4)C3=O)c2C)cc1`, for which the percent GFP positive (differentiation) is 7.7% (inactive).

For `Cc1ccc(OCc2nnc(SCc3nc4ccccc4[nH]3)n2Cc2ccco2)cc1`, the percent GFP positive (differentiation) is 3.4% (inactive).

`CCOC(=O)C1=C(CN2CCc3ccccc32)NC(=O)NC1c1cccc([N+](=O)[O-])c1` (stereo not drawn): the percent GFP positive (differentiation) was 10.5% (inactive).

Regarding `CCC(CO)n1c(SCc2cc(=O)oc3cc(C)ccc23)nc2ccccc2c1=O` (stereo not drawn), the percent GFP positive (differentiation) was 2.7% (inactive).

Take `O=C(CCCN1C(=O)/C(=C/c2ccco2)SC1=S)Nc1cccc(C(=O)O)c1`: the percent GFP positive (differentiation) was 7.4% (inactive).

As for `COc1ccccc1NC(=O)c1cccc(S(=O)(=O)N2CCN(c3ccccc3)CC2)c1`, the percent GFP positive (differentiation) is 4.3% (inactive).

Turning to `Cc1cccn2c(=O)c(/C=C3\SC(=S)NC3=O)c(NCCCN3CCOCC3)nc12`, the percent GFP positive (differentiation) was 33% (inactive).

Turning to `Cn1c(-c2ccccc2)c[n+]2c1-c1ccccc1C2`, the percent GFP positive (differentiation) was 3.8% (inactive).

Staying with this assay, now noted: ER-HoxA9 myeloid progenitors, lysozyme-GFP differentiation, flow cytometry; at 39.8 µM (top of the series).
Take `N#CC(C#N)=c1ccc2c(c1)N1C(c3ccccc3)=CC(c3ccccc3)C3CCCCC31N=2` (stereo not drawn): the percent GFP positive (differentiation) is 1% (inactive).

In the case of `C#CC[N+](CC)(CC)CC#Cc1ccccc1`, the percent GFP positive (differentiation) is 4.1% (inactive).

On to `CC(=O)c1c(N2CCOCC2)[nH]c(-c2ccccc2)nc1=S`, for which the percent GFP positive (differentiation) is 5.35% (inactive).

In the case of `Cc1ccc(-c2nn3c(C)nnc3s2)cc1NC(=O)CSc1ccc(Cl)cc1`, the percent GFP positive (differentiation) was 0.9% (inactive).

As to `COc1cccc(NC(=O)[C@H](Cc2c[nH]c3ccccc23)NC(=O)[C@@H]2Cc3ccccc3CN2)c1`, the percent GFP positive (differentiation) is 3.5% (inactive).

Regarding `COc1ccc(C)cc1NC(=O)n1ncc2cc(Cl)ccc21`, the percent GFP positive (differentiation) is 2.5% (inactive).

Regarding `COc1ccccc1CN(Cc1nc2ccccc2c(=O)[nH]1)C(=O)Nc1ccc(C)cc1`, the percent GFP positive (differentiation) was 1.4% (inactive).

Regarding `C[n+]1ccccc1/C=C/c1ccc2ncccc2c1`, the percent GFP positive (differentiation) is 4.4% (inactive).

For `Cc1c(N=C2NN=C(c3c[nH]c4ccccc34)CS2)c(=O)n(-c2ccccc2)n1C`, the percent GFP positive (differentiation) was 5.55% (inactive).

Turning to `CCS(=O)(=O)c1nc(S(=O)(=O)c2ccc(Cl)cc2)c(N2CCC3(CC2)OCCO3)s1`, the percent GFP positive (differentiation) was 5.1% (inactive).

`COc1ccc(Cn2nnnc2CN2CCc3ccccc32)cc1`: the percent GFP positive (differentiation) was 1.9% (inactive).

Consider `O=[N+]([O-])c1ccc(C[n+]2cccc3c4ccccc4ccc32)cc1`, for which the percent GFP positive (differentiation) was 3.1% (inactive).

For `COc1ccc2ccccc2c1CNC(=O)CC1C(=O)NCCN1CC(C)C` (stereo not drawn), the percent GFP positive (differentiation) was 7% (inactive).

As to `COc1ccc(/C=C/c2cccc[n+]2C)c(O)c1`, the percent GFP positive (differentiation) was 6.2% (inactive).

As to `CCOC(=O)c1c(NC(=O)c2nn(CC)cc2Br)c(C#N)cn1-c1ccccc1`, the percent GFP positive (differentiation) was 0.4% (inactive).

For the compound `CCCCN1C(N)=NC[C@@H]1Cc1ccc(O)cc1`, the percent GFP positive (differentiation) is 3.4% (inactive).

On to `CCOc1ccccc1Nc1nc2ccc(C)cc2n2cnnc12`, for which the percent GFP positive (differentiation) was 1.4% (inactive).

For `O=C(O)c1ccccc1N/N=C/c1c(Sc2nnnn2-c2ccccc2)nc2ccccn2c1=O`, the percent GFP positive (differentiation) was 97.5% (inactive).

Turning to `Cc1cccc(N2CCN(C(=O)c3ccc4c(c3)OCCO4)CC2)c1C`, the percent GFP positive (differentiation) is 2.1% (inactive).

`COc1ccc(NC(=S)N2CCC3CC2c2c(Cl)cccc23)c(OC)c1` (stereo not drawn): the percent GFP positive (differentiation) was 0.6% (inactive).

Regarding `CC(=O)c1c(NC(=O)c2ccccc2)[nH]c(-c2ccccc2)nc1=S`, the percent GFP positive (differentiation) is 4% (inactive).

Another assay has as its system ER-HoxA9 myeloid progenitors, lysozyme-GFP differentiation, flow cytometry. The description is as above.
Details: not given
As for `O=C(O)c1ccccc1Nc1ccc([N+](=O)[O-])cc1`, the EC50 was 6.05 µM.

Regarding `CCCCn1c(N)c(N(CC(C)C)C(=O)Cc2ccc(S(=O)(=O)N3CCOCC3)s2)c(=O)[nH]c1=O`, the EC50 is 20.2 µM.

`Cc1cccn2cc(COc3ccc(-c4ccccc4)cc3)nc12`: the EC50 is 2.24 µM.

Regarding `CC(=O)Nc1ccc(C2=CC(=O)C[C@H](c3ccc(Cl)cc3)C2)cc1`, the EC50 was 24.7 µM.

As for `C/C(=C1/SC(N2CCCC2)=NC1=O)c1ccc(Br)cc1`, the EC50 is 2.08 µM.

For `O[C@H]1C[C@H](c2ccc(Cl)cc2)N(Cc2cccs2)C[C@@H]1n1cc(C2CC2)nn1`, the EC50 was 4.9 µM.

As to `O=C(CCNC(=O)c1ccc(Br)cc1)NC1CCCc2ccccc21` (stereo not drawn), the EC50 was 5.32 µM.

In the case of `COc1ccccc1C1N(c2ccc(Cl)cc2)C(=O)C2CCCN21` (stereo not drawn), the EC50 was 6.47 µM.

`CCC(C)Sc1ccc(-c2nc3cc(C)ccn3c2NC2CCCCC2)cc1` (stereo not drawn): the EC50 was 21.3 µM.

`Cc1cc(NC(=O)COC(=O)c2c(C)nn(Cc3ccccc3)c2Cl)no1`: the EC50 was 4.44 µM.

Consider `Cc1ccc(Nc2nc(=O)c3cccnc3s2)c(Br)c1`, for which the EC50 is 4.47 µM.

As to `O=C(O)c1cccnc1Nc1ccc(Cl)cc1`, the EC50 is 5.88 µM.

Turning to `COC(=O)c1cc2c(=O)c3ccccc3oc2nc1/C=C/N(C)C`, the EC50 is 6.88 µM.

As for `N#C/C(=C\N1CCN(Cc2ccc3c(c2)OCO3)CC1)c1nc2ccccc2s1`, the EC50 is 6.5 µM.

As to `Cn1ccc2c(-c3ccc(C(C)(C)C)cc3)cc3c(c21)C1CCC3O1` (stereo not drawn), the EC50 is 5.62 µM.

Broadly, the EC50 is the concentration giving half of the maximal effect.
